Laboratory results as given in patent US20240279602A1, “METHOD FOR PRODUCING CEREBRAL CORTICAL CELL PREPARATION DERIVED FROM HUMAN PLURIPOTENT STEM CELLS” (Kyoto University, priority 2021, published 2024).

Test system: human iPS cells (S2WCB1 strain, S2WCB3 strain)
Assay: Efficiency of cerebral organoid formation after step (1) maintenance culture and induction of differentiation
Type: cell-based
Parameters: Efficiency of cerebral organoid formation (%): concentration or dose not given beside the values
Settings: for Efficiency (%) of cerebral organoid formation: -Day 1 to Day 0, evaluated Day 35
Protocol: Step (1) and step (2) were performed according to a scheme illustrated in FIG. 3 or FIG. 5. Maintenance culture of human iPS cells (S2WCB1 strain, S2WCB3 strain) was performed in StemFit culture medium on a 6-well plate coated with iMatrix-511 (feeder-free).
The culture medium was exchanged with: • (1) a culture medium obtained by adding 5 μM SB431542 to StemFit culture medium without solution C (i.e., a bFGF-free culture medium) (FIG. 3); or • (2) Essential 6 culture medium (i.e., a bFGF-free, TGFβ-free culture medium) (FIG. 5), • and adhesion culture was performed for 1 day.
Step (2a) Induction of differentiation into neural cells was performed in a serum-free culture medium by using a method by Sakaguchi et al. (Stem Cell Reports, 13:458-473, 2019. doi: 10.1016/j.stemcr.2019.05.029.). Specifically, human iPS cells cultured in step (1) were dispersed into single cells by enzymatic treatment. The human iPS cells dispersed into single cells were seeded on a non-cell-adhesive 96-well culture plate (PrimeSurface 96 V-bottom plate, manufactured by Sumitomo Bakelite Co., Ltd.) (9,000 cells/well/100 μL), and subjected to suspension culture with Glasgow MEM (GMEM; Thermo Fisher Scientific Inc.) culture medium supplemented with 0.1 mM non-essential amino acids, 1 mM pyruvate, 0.1 mM 2-mercaptoethanol, 20% (v/v) KnockOut (TM) serum replacement, 100 U/mL penicillin, and 100 μg/ml streptomycin (hereinafter, also referred to as 20GMK) with further addition of 5 μM SB431542 (TGFβ signaling inhibitor; Tocris Bioscience) and 3 μM IWR1e (Wnt signaling inhibitor; Calbiochem), at 37° C. under 5% CO2 for 18 days. Culture medium exchange was performed every 3 days. Y-27632 was added to reach 50 μM on Day 0, and not added in the subsequent culture medium exchanges. Through the culture, cell aggregates were eventually obtained.
Step (2b) On Day 18, the cell aggregates obtained were transferred into a 90-mm dish, and subjected to shaking culture with an Orbital Shaker in DMEM/F12/GlutaMAX culture medium supplemented with 1×N2 supplement (Thermo Fisher Scientific Inc.), a chemically defined lipid concentrate (Invitrogen), 0.25 mg/mL fungizone (Gibco), 1% penicillin/streptomycin, and 0.1% amphotericin B at 37° C. under 20% 02 and 5% CO2 from Day 35 to Day 42. Culture medium exchange was performed every 3 to 4 days.
Efficiency (%) of cerebral organoid formation was calculated by the following expression.
In step (1) of the scheme in FIG. 3, culture was performed with a culture medium supplemented with any additive below during a period of −Day 1 to Day 0, induction of differentiation into neural cells was performed on Day 0, and the efficiencies of cerebral organoid formation were evaluated on Day 35. […] In FIG. 7, “None” indicates the absence of an additive.
Under the experimental system with (1) “bFGF-free-and-SB431542-supplemented culture medium”, which was obtained by adding 5 μM SB431542 to StemFit culture medium without solution C, in Example 1, periods for culture of iPS cells with “bFGF-free-and-SB431542-supplemented culture medium” were set as in a table below.

[1] = step (1) in bFGF-containing culture medium (StemFit with solution C)
[2] = step (1) in bFGF-free culture medium (StemFit without solution C)

Row | SMILES | structure of cell culture on Day 35 (immunostaining) (additive in bFGF-free culture medium in step (1) (Exp. F)) | Efficiency (%) of cerebral organoid formation [1] | Efficiency (%) of cerebral organoid formation [2] | Efficiency of cerebral organoid formation (%) (step (1) in Essential 6 (E6) culture medium supplemented with SB431542) | Efficiency (%) of cerebral organoid formation (step (1) in bFGF-containing culture medium (StemFit with solution C), listed as SB-431542) [%]
1 | O=C(Nc1cccc2cccnc12)c1ccc(N2C(=O)[C@@H]3[C@H](C2=O)[C@@H]2C=C[C@H]3C2)cc1 [IWR1e, 4-[(3aR,4S,7R,7aS)-1,3,3a,4,7,7a-hexahydro-1,3-dioxo-4,7-methano-2H-isoindol-2-yl]-N-8-quinolinyl-benzamide] | no cerebral cortex-like structure was formed | <1% | <5% |  | 
2 | c1ccc2c(-c3cnn4cc(-c5ccc(N6CCNCC6)cc5)cnc34)ccnc2c1 [LDN-193189] |  |  | <5% |  | 
3 | NC(=O)c1ccc(-c2nc(-c3ccc4c(c3)OCO4)c(-c3ccccn3)[nH]2)cc1 [SB431542, 4-[4-(1,3-benzodioxol-5-yl)-5-(2-pyridinyl)-1H-imidazol-2-yl]-benzamide] |  | less than 5% | high efficiency | 56.9 | <5
